Source: US20210254272A1, “TEXTILES HAVING ANTIMICROBIAL PROPERTIES” (Livinguard AG, priority 2015, published 2021)

Assay: Leaching test: 100 g fabric soaked in 10 liters stagnant distilled water, 3 days (72 hours)
Format: physicochemical
Experimental: (§1) The test procedure for leaching was as follows: 100 g (grams) of fabric as well as control fabrics were soaked in 10 liters of stagnant distilled water in a closed wide mouth jar. After 3 days (72 hours), the water samples were tested for leached substances as per standard analytical methods.
as §1, with “methods. A weight of 100 g fabric was chosen because in the preferred embodiment of the water filter as described further below, each filter comprises a strip of fabric with 210 g/m^2, 3 meters long and 0.16 meters wide, which corresponds to 100 g of fabric.” for “methods.”

For polyglucosamine [chitosan], the “Leaching of active ingredients (in ppm)” value (0.2% each in mixture (o.w.f), exhaust 80° C., 60 min, curing 180° C., 2 min, unwashed) was 9 ppm, the “Leaching of active ingredients (in ppm)” value (0.5% each in mixture (o.w.f), exhaust 80° C., 60 min, curing 180° C., 2 min, unwashed) was 12 ppm and the “Leaching of active ingredients (in ppm)” value (1.0% each in mixture (o.w.f), exhaust 80° C., 60 min, curing 180° C., 2 min, unwashed) was 16 ppm. For the same substance, the “Leaching of active ingredients (in ppm)” value (exhaust 60° C., solution dosage 1% o.w.f, process time 60 min) was 21 ppm, the “Leaching of active ingredients (in ppm)” value (exhaust 60° C., solution dosage 1% o.w.f, process time 90 min) was 13 ppm and the “Leaching of active ingredients (in ppm)” value (exhaust 60° C., solution dosage 1% o.w.f, process time 120 min) was 14 ppm. The “Leaching of active ingredients (in ppm)” value (exhaust 60° C., solution dosage 1% o.w.f, process time 180 min) was 12 ppm, the “Leaching of active ingredients (in ppm)” value (exhaust 60° C., solution dosage 1% o.w.f, process time 240 min) was 13 ppm and the “Leaching of active ingredients (in ppm)” value (exhaust 80° C., 1% o.w.f, 60 min, curing 170° C., curing dwell time 0.5 min) was 28 ppm. The “Leaching of active ingredients (in ppm)” value (exhaust 80° C., 1% o.w.f, 60 min, curing 170° C., curing dwell time 1.0 min) was 26 ppm, the “Leaching of active ingredients (in ppm)” value (exhaust 80° C., 1% o.w.f, 60 min, curing 170° C., curing dwell time 1.5 min) was 20 ppm and the “Leaching of active ingredients (in ppm)” value (exhaust 80° C., 1% o.w.f, 60 min, curing 170° C., curing dwell time 2.0 min) was 13 ppm. The “Leaching of active ingredients (in ppm)” value (exhaust 80° C., 1% o.w.f, 60 min, curing 170° C., curing dwell time 2.5 min) was 18 ppm, the “Leaching of active ingredients (in ppm)” value (exhaust 80° C., 1% o.w.f, 60 min, curing 170° C., curing dwell time 3.0 min) was 18 ppm and the “Leaching of active ingredients (in ppm)” value (exhaust 80° C., 1% o.w.f, 60 min, curing 180° C., curing dwell time 0.5 min) was 21 ppm. The “Leaching of active ingredients (in ppm)” value (exhaust 80° C., 1% o.w.f, 60 min, curing 180° C., curing dwell time 1.0 min) was 13 ppm, the “Leaching of active ingredients (in ppm)” value (exhaust 80° C., 1% o.w.f, 60 min, curing 180° C., curing dwell time 1.5 min) was 14 ppm and the “Leaching of active ingredients (in ppm)” value (exhaust 80° C., 1% o.w.f, 60 min, curing 180° C., curing dwell time 2.0 min) was 3 ppm. For the same substance, the “Leaching of active ingredients (in ppm)” value (exhaust 80° C., 1% o.w.f, 60 min, curing 180° C., curing dwell time 2.5 min) was 12 ppm, the “Leaching of active ingredients (in ppm)” value (exhaust 80° C., 1% o.w.f, 60 min, curing 180° C., curing dwell time 3.0 min) was 12 ppm and the “Leaching of active ingredients (in ppm)” value (exhaust 80° C., 1% o.w.f, 60 min, curing dwell time at 190° C. (title): 0.5 min) was 20 ppm. The “Leaching of active ingredients (in ppm)” value (exhaust 80° C., 1% o.w.f, 60 min, curing dwell time at 190° C. (title): 1.0 min) was 13 ppm, the “Leaching of active ingredients (in ppm)” value (exhaust 80° C., 1% o.w.f, 60 min, curing dwell time at 190° C. (title): 1.5 min) was 12 ppm and the “Leaching of active ingredients (in ppm)” value (exhaust 80° C., 1% o.w.f, 60 min, curing dwell time at 190° C. (title): 2.0 min) was 11 ppm. The “Leaching of active ingredients (in ppm)” value (exhaust 80° C., 1% o.w.f, 60 min, curing dwell time at 190° C. (title): 2.5 min) was 25 ppm, the “Leaching of active ingredients (in ppm)” value (exhaust 80° C., 1% o.w.f, 60 min, curing dwell time at 190° C. (title): 3.0 min) was 35 ppm and the “Leaching of active ingredients (in ppm)” value (exhaust 80° C., 60 min, dosage 1% o.w.f (test up to 5% o.w.f)) was 2 ppm. The “Leaching of active ingredients (in ppm)” value (exhaust 80° C., 60 min, dosage 2% o.w.f) was 17 ppm, the “Leaching of active ingredients (in ppm)” value (exhaust 80° C., 60 min, dosage 3% o.w.f) was 41 ppm and the “Leaching of active ingredients (in ppm)” value (exhaust 80° C., 60 min, dosage 4% o.w.f) was 42 ppm. The “Leaching of active ingredients (in ppm)” value (exhaust 80° C., 60 min, dosage 5% o.w.f) was 72 ppm, the “Leaching of active ingredients (in ppm)” value (exhaust 80 ° C., solution dosage 1% o.w.f, process time 10 min) was 37 ppm and the “Leaching of active ingredients (in ppm)” value (exhaust 80 ° C., solution dosage 1% o.w.f, process time 20 min) was 25 ppm. For the same substance, the “Leaching of active ingredients (in ppm)” value (exhaust 80 ° C., solution dosage 1% o.w.f, process time 30 min) was 21 ppm, the “Leaching of active ingredients (in ppm)” value (exhaust 80 ° C., solution dosage 1% o.w.f, process time 40 min) was 16 ppm and the “Leaching of active ingredients (in ppm)” value (exhaust 80 ° C., solution dosage 1% o.w.f, process time 50 min) was 12 ppm. The “Leaching of active ingredients (in ppm)” value (exhaust 80 ° C., solution dosage 1% o.w.f, process time 55 min) was 5 ppm, the “Leaching of active ingredients (in ppm)” value (exhaust 80 ° C., solution dosage 1% o.w.f, process time 60 min) was 3 ppm and the “Leaching of active ingredients (in ppm)” value (exhaust 80 ° C., solution dosage 1% o.w.f, process time 70 min) was 2 ppm. The “Leaching of active ingredients (in ppm)” value (exhaust 80 ° C., solution dosage 1% o.w.f, process time 80 min) was 5 ppm, the “Leaching of active ingredients (in ppm)” value (exhaust 80 ° C., solution dosage 1% o.w.f, process time 90 min) was 8 ppm and the “limit on the quantity of the agent that can be adhered to the textile in a non-leaching or substantially non-leaching manner” value (from Experimental examples I.1 and I.4) was “about 0.2 % o.w.f”. For the same substance, the “Leaching of active ingredient (in ppm)” value (solution dosage 0.10% o.w.f, exhaust temperature 60° C., process time 60 min) was 0 ppm, the “Leaching of active ingredient (in ppm)” value (solution dosage 0.10% o.w.f, exhaust temperature 65° C., process time 60 min) was 0 ppm and the “Leaching of active ingredient (in ppm)” value (solution dosage 0.10% o.w.f, exhaust temperature 70° C., process time 60 min) was 0 ppm. For the same substance, the “Leaching of active ingredient (in ppm)” value (solution dosage 0.10% o.w.f, exhaust temperature 75° C., process time 60 min) was 0 ppm, the “Leaching of active ingredient (in ppm)” value (solution dosage 0.10% o.w.f, exhaust temperature 80° C., process time 60 min) was 0 ppm and the “Leaching of active ingredient (in ppm)” value (solution dosage 0.10% o.w.f, exhaust temperature 85° C., process time 60 min) was 1 ppm. For the same substance, the “Leaching of active ingredient (in ppm)” value (solution dosage 0.10% o.w.f, exhaust temperature 90° C., process time 60 min) was 2 ppm, the “Leaching of active ingredient (in ppm)” value (solution dosage 0.10% o.w.f, exhaust temperature 95° C., process time 60 min) was 2 ppm and the “Leaching of active ingredient (in ppm)” value (solution dosage 0.20% o.w.f, exhaust temperature 60° C., process time 60 min) was 0 ppm. For the same substance, the “Leaching of active ingredient (in ppm)” value (solution dosage 0.20% o.w.f, exhaust temperature 65° C., process time 60 min) was 0 ppm, the “Leaching of active ingredient (in ppm)” value (solution dosage 0.20% o.w.f, exhaust temperature 70° C., process time 60 min) was 0 ppm and the “Leaching of active ingredient (in ppm)” value (solution dosage 0.20% o.w.f, exhaust temperature 75° C., process time 60 min) was 0 ppm. For the same substance, the “Leaching of active ingredient (in ppm)” value (solution dosage 0.20% o.w.f, exhaust temperature 80° C., process time 60 min) was 0 ppm, the “Leaching of active ingredient (in ppm)” value (solution dosage 0.20% o.w.f, exhaust temperature 85° C., process time 60 min) was 2 ppm and the “Leaching of active ingredient (in ppm)” value (solution dosage 0.20% o.w.f, exhaust temperature 90° C., process time 60 min) was 3 ppm. The “Leaching of active ingredient (in ppm)” value (solution dosage 0.20% o.w.f, exhaust temperature 95° C., process time 60 min) was 4 ppm, the “Leaching of active ingredient (in ppm)” value (solution dosage 0.50% o.w.f, exhaust temperature 60° C., process time 60 min) was 1 ppm and the “Leaching of active ingredient (in ppm)” value (solution dosage 0.50% o.w.f, exhaust temperature 65° C., process time 60 min) was 1 ppm. For the same substance, the “Leaching of active ingredient (in ppm)” value (solution dosage 0.50% o.w.f, exhaust temperature 70° C., process time 60 min) was 1 ppm, the “Leaching of active ingredient (in ppm)” value (solution dosage 0.50% o.w.f, exhaust temperature 75° C., process time 60 min) was 1 ppm and the “Leaching of active ingredient (in ppm)” value (solution dosage 0.50% o.w.f, exhaust temperature 80° C., process time 60 min) was 1 ppm. For the same substance, the “Leaching of active ingredient (in ppm)” value (solution dosage 0.50% o.w.f, exhaust temperature 85° C., process time 60 min) was 4 ppm, the “Leaching of active ingredient (in ppm)” value (solution dosage 0.50% o.w.f, exhaust temperature 90° C., process time 60 min) was 5 ppm and the “Leaching of active ingredient (in ppm)” value (solution dosage 0.50% o.w.f, exhaust temperature 95° C., process time 60 min) was 7 ppm. The “Leaching of active ingredient (in ppm)” value (solution dosage 0.80% o.w.f, exhaust temperature 60° C., process time 60 min) was 2 ppm, the “Leaching of active ingredient (in ppm)” value (solution dosage 0.80% o.w.f, exhaust temperature 65° C., process time 60 min) was 2 ppm and the “Leaching of active ingredient (in ppm)” value (solution dosage 0.80% o.w.f, exhaust temperature 70° C., process time 60 min) was 2 ppm. The “Leaching of active ingredient (in ppm)” value (solution dosage 0.80% o.w.f, exhaust temperature 75° C., process time 60 min) was 3 ppm, the “Leaching of active ingredient (in ppm)” value (solution dosage 0.80% o.w.f, exhaust temperature 80° C., process time 60 min) was 1 ppm and the “Leaching of active ingredient (in ppm)” value (solution dosage 0.80% o.w.f, exhaust temperature 85° C., process time 60 min) was 7 ppm. The “Leaching of active ingredient (in ppm)” value (solution dosage 0.80% o.w.f, exhaust temperature 90° C., process time 60 min) was 8 ppm, the “Leaching of active ingredient (in ppm)” value (solution dosage 0.80% o.w.f, exhaust temperature 95° C., process time 60 min) was 9 ppm and the “Leaching of active ingredient (in ppm)” value (solution dosage 1.00% o.w.f, exhaust temperature 60° C., process time 60 min) was 6 ppm. The “Leaching of active ingredient (in ppm)” value (solution dosage 1.00% o.w.f, exhaust temperature 65° C., process time 60 min) was 6 ppm, the “Leaching of active ingredient (in ppm)” value (solution dosage 1.00% o.w.f, exhaust temperature 70° C., process time 60 min) was 4 ppm and the “Leaching of active ingredient (in ppm)” value (solution dosage 1.00% o.w.f, exhaust temperature 75° C., process time 60 min) was 3 ppm. The “Leaching of active ingredient (in ppm)” value (solution dosage 1.00% o.w.f, exhaust temperature 80° C., process time 60 min) was 1.5 ppm, the “Leaching of active ingredient (in ppm)” value (solution dosage 1.00% o.w.f, exhaust temperature 85° C., process time 60 min) was 9 ppm and the “Leaching of active ingredient (in ppm)” value (solution dosage 1.00% o.w.f, exhaust temperature 90° C., process time 60 min) was 11 ppm. The “Leaching of active ingredient (in ppm)” value (solution dosage 1.00% o.w.f, exhaust temperature 95° C., process time 60 min) was 12 ppm.
